Results as given in patent US12378240B2, “Naphthyridinone-aniline compounds for treatment of dermal disorders” (NFlection Therapeutics, Inc., priority 2018, dated 2025).

Molecular target: MEK1 (Homo sapiens (Human), UniProt Q02750)
Assay: MEK1 inhibition assay (Z'-LYTE biochemical assay)
Conditions: MAP2K1 (MEK1)/inactive MAPK1 (ERK2)/Ser/Thr 03 cascade, 10 point titration; read-out: IC50 against MEK1
Experimental: MEK1 inhibitory activity of compounds were tested using the following procedure (protocol available at thermofisher.com/content/dam/LifeTech/migration/files/drug-discovery/pdfs.par.60256.file.dat/20130430%20ssbk%20customer%20protocol%20and%20assay%20conditions.pdf). The Z′-LYTE biochemical assay (ThermoFisher) employs a fluorescence-based, coupled-enzyme format and is based on the differential sensitivity of phosphorylated and non-phosphorylated peptides to proteolytic cleavage.
Test compounds in 100% DMSO were screened in 1% DMSO (final) in the well. For 10 point titrations, 3-fold serial dilutions are conducted from the starting concentration of 30 μM.
After the 1 hour incubation, 5 μL of a 1:1024 dilution of Development Reagent A (available from Invitrogen, catalog no. PV3295) was added.
ATP solutions were diluted to a 4× working concentration in Kinase Buffer (50 mM HEPES pH 7.5, 0.01% BRIJ-35, 10 mM MgCl2, 1 mM EGTA). ATP Km apparent was previously determined using a Z′-LYTE assay. The Development Reagent was diluted in Development Buffer (available from Invitrogen, catalog no. P3127).
Assay Protocol: 2.5 μL of 4× test compound or 100 nL of 100× Test Compound plus 2.4 μL Kinase Buffer, 5 μL of the 2× Peptide/Kinase Mixture, 2.5 μL of 4×ATP Solution were added to the plates and placed on a shake plate for 30-seconds. The kinase reaction was allowed to proceed for 60-minute at room temperature, before 5 μL of Development Reagent Solution was added, and the mixture agitated for 30-seconds on a shake plate. The mixture was incubated for 60-minute at room temperature. Fluorescence was measured using a plate reader and the data were analyzed.
This control yielded 100% cleaved peptide in the Development Reaction. The 100% Phosphorylation Control, which consisted of a synthetically phosphorylated peptide of the same sequence as the peptide substrate, was designed to allow for the calculation of percent phosphorylation. This control yielded a very low percentage of cleaved peptide in the Development Reaction. The 0% Phosphorylation and 100% Phosphorylation Controls allow for the calculation of the percent phosphorylation achieved in a specific reaction well.
The minimum emission ratio in a screen was established by the 0% Inhibition Control, which contained active kinase. This control was designed to produce a 10-50% phosphorylated peptide in the Kinase Reaction. […]
A known inhibitor control standard curve, 10 point titration, was run for each individual kinase on the same plate as the kinase to ensure the kinase was inhibited within an expected IC50 range previously determined.
The following controls are prepared for each concentration of Test Compound assayed. […] The expected value for a non-fluorescence compound should be 0%. […]
The data in Table A was calculated. […]

MEK1, sequence (Q02750 whole entry): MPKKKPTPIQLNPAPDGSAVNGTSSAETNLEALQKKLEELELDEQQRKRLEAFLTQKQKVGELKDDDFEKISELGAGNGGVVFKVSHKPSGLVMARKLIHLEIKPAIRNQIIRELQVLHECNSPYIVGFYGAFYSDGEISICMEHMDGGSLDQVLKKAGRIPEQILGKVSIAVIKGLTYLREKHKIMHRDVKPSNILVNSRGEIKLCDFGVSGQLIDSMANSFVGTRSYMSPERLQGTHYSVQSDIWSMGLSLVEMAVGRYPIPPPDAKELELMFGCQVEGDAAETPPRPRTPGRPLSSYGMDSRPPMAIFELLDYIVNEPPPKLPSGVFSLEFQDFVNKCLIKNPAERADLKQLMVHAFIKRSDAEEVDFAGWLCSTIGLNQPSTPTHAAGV

IC50 [nM]	Structure (SMILES)
≤ 150	O=c1c2c(Nc3ccc(I)cc3F)cncc2ccn1C[C@@H](O)CO [Compound 1.001, (R)-2-(2,3-Dihydroxypropyl)-8-(2-fluoro-4-iodophenylamino)-2,6-naphthyridin-1(2H)-one]
≤ 150	O=c1c2c(Nc3ccc(I)cc3F)cncc2ccn1C[C@H](O)CO [Compound 1.002, (S)-2-(2,3-Dihydroxypropyl)-8-(2-fluoro-4-iodophenylamino)-2,6-naphthyridin-1(2H)-one]
> 1500	O=C(O)Cn1ccc2cncc(Nc3ccc(I)cc3F)c2c1=O [Compound 1.004, 2-(8-(2-Fluoro-4-iodophenylamino)-1-oxo-2,6-naphthyridin-2(1H)-yl)acetic acid]
> 1500	COC(=O)Cn1ccc2cncc(Nc3ccc(I)cc3F)c2c1=O [Compound 1.005, Methyl 2-(8-(2-fluoro-4-iodophenylamino)-1-oxo-2,6-naphthyridin-2(1H)-yl)acetate]

Test system: not listed separately
Assay: Human liver S9 fraction stability assay
Type: in vitro ADME
Conditions: pH 7.4, human liver S9, 1 μM test compound, 2 mg/mL protein, 1 mM NADPH, 37° C., read-out: Liver S9 fraction stability, t1/2
Experimental: Compounds can be assessed for metabolic stability in human skin by assessing their rate of disappearance from human S9 skin fraction. Similarly, compounds can be assessed for metabolic stability in human liver by assessing their rate of disappearance from human S9 liver fraction. The protocol below is used to assess the difference between skin and hepatic metabolism.
The assay was carried out in 96-well microtiter plates at 37° C. Reaction mixtures (25 μL) contained a final concentration of 1 μM test compound, 2 mg/mL liver or skin protein, and 1 mM NADPH in buffer (100 mM potassium phosphate, pH 7.4 buffer with 1 mM EDTA, 3 mM MgCl2). At each of the time points (0, 15, 30, and 60 minutes), 150 μL of quench solution (100% acetonitrile with 0.1% formic acid) with internal standard was transferred to each well. Besides the zero minute controls, mixtures containing the same components except the NADPH were also prepared as the negative control. Verapamil or testosterone was included as a positive control to verify assay performance. Plates were sealed and centrifuged at 4° C. for 15 minutes at 4000 rpm. The supernatant was transferred to fresh plates for LC/MS/MS analysis.
All samples were analyzed on LC/MS/MS using an AB Sciex API 4000 instrument, coupled to a Shimadzu LC-20AD LC Pump system. Analytical samples were separated using a Waters Atlantis T3 dC18 reverse phase HPLC column (20 mm×2.1 mm) at a flow rate of 0.5 mL/min. The mobile phase consisted of 0.1% formic acid in water (solvent A) and 0.1% formic acid in 100% acetonitrile (solvent B).
The extent of metabolism was calculated as the disappearance of the test compound, compared to the 0-min control reaction incubations. Initial rates were calculated for the compound concentration and used to determine t1/2 values and subsequently, the intrinsic clearance, CLint=(0.693) (1/t1/2 (min)) (mL incubation/mg of S9 protein).
Table 4 lists t1/2 values for the above liver S9 stability assay. […]

half-life at 1 μM [min]	Structure (SMILES)
50 to 200	O=c1c2c(Nc3ccc(I)cc3F)cncc2ccn1OCCO [Compound 1.007, 8-(2-Fluoro-4-iodophenylamino)-2-(2-hydroxyethoxy)-2,6-naphthyridin-1(2H)-one]
50 to 200	O=C1c2c(cncc2Nc2ccc(I)cc2F)CCN1OCCO [Compound 1.010, 8-(2-Fluoro-4-iodophenylamino)-2-(2-hydroxyethoxy)-3,4-dihydro-2,6-naphthyridin-1(2H)-one]
≤ 50	O=C1NCCc2cncc(Nc3ccc(I)cc3F)c21 [Compound 1.012, 8-((2-Fluoro-4-iodophenyl)amino)-3,4-dihydro-2,6-naphthyridin-1(2H)-one]
